Measured values: patent US11040117B2, “Treatment of a subtype of ASD” (Stalicla S.A., priority 2017, dated 2021)

Each substance was assayed on ASD phenotype 1 lymphoblastoid cell lines (assay: Biolog Phenotype Mammalian MicroArrays (PM-M): NADH production, colorimetric redox dye). Settings: cells exposed to the substance; AUC and endpoint absorbance.
Type: cell-based, human
Procedure: From all subjects, blood samples were collected and lymphoblastoid cell lines generated. Briefly, tubes containing anticoagulant citrate dextrose (ACD) were used to collect blood samples via venipuncture, in order to ensure that the blood cells remained metabolically active. The tubes were kept at room temperature and processed within 24 hours.
Cell lines were obtained by immortalization of lymphocytes from blood samples using Epstein-Barr virus.
Energy production of cells was measured using commercially available Phenotype Mammalian MicroArrays (PM-Ms, Biolog, Hayward, Calif., USA).
The compound in each well was designed to be used by the cells, either as the sole energy source or as the metabolic effector influencing the utilization of an energy source (α-D-glucose) added in the cell suspension. […] Before plating, cell viability and number were assessed utilizing a BioRad cell counter and a trypan blue dye. The concentration of live cells required for plating was 4×10^5 cells/mL, corresponding to 20,000 cells per well in a volume of 50 μL. […] Cells were incubated for 48 h at 37° C. in 5% CO2, using the modified Biolog IF-M1 medium.
The Biolog IF-M1 medium was modified for plates PM-M1 to M4 by adding the following to 100 mL of Biolog IF-M1: 1.1 mL of 100× penicillin/streptomycin solution, 0.16 mL of 200 mM glutamine (final concentration 0.3 mM), and 5.3 mL of Fetal Bovine Serum (FBS, final concentration 5%). For plates PM-M5 to M8, 5.5 mM α-D-glucose will be added in place of FBS.
During the 48-hour incubation, the only energy source the cells had was the chemical in the well. After this first incubation, Biolog Redox Dye Mix MB was added (10 μL/well) and the plates were incubated under the same conditions for an additional 24 hours. As the cells metabolized the energy source, tetrazolium dye in the media was reduced, producing a purple color according to the amount of NADH generated.
For the last 24 hours of the experiment, the plates were incubated in the Omnilog system, which collects optical density readings every 15 minutes, generating 96 data-points for each well. The system also elaborated the kinetic curve for the metabolic reaction in each well and extrapolated parameters such as slope, highest point, endpoint, area under the curve (AUC), and lag.
At the end of the 24-hour incubation, the plates were analyzed utilizing a microplate reader with readings at 590 and 750 nm. The first value (A590) indicated the highest absorbance peak of the redox dye and the second value (A750) gave a measure of the background noise. The relative absorbance (A590-750) was calculated per well.
In the case of “FGF-1(aFGF): growth factor that selectively targets the PI3K-Akt-mTOR by binding the receptor tyrosine kinase”, the “production of NADH in ASD phenotype 1 cells compared to TDs and non-phenotype 1 cells” value is reported as “significantly reduced production of NADH”.
In the case of IL-6: Th1 cytokine, the “production of NADH in ASD phenotype 1 cells compared to TDs and non-phenotype 1 cells” value is reported as “significantly lower levels of NADH”.
With “PDGF-AB: platelet-derived growth factor AB” the “production of NADH in ASD phenotype 1 cells compared to TDs and non-phenotype 1 cells” value was “no significant differences”.
In the case of “IGF-I: insulin-like growth factor 1; targets less specifically the PI3K-AKT-mTOR pathway in LCLs”, the “production of NADH in ASD phenotype 1 cells compared to TDs and non-phenotype 1 cells” value is reported as “no significant differences”.
With IL-1beta: Th1 cytokine the “production of NADH in ASD phenotype 1 cells compared to TDs and non-phenotype 1 cells” value was “significantly lower levels of NADH”.
For “hGH(Somatotropin): growth factor that selectively targets the PI3K-Akt-mTOR by binding the receptor tyrosine kinase”, the “production of NADH in ASD phenotype 1 cells compared to TDs and non-phenotype 1 cells” value was “significantly reduced production of NADH”.
